According to US6737383B1, “Herbicidal oxadiazolidines” (priority 1999, dated 2004):

Assays:
soybean = assay: Test B pre/postemergence soybean; type: in vivo, Glycine max
In short: (§1)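 Herbicidal effect was estimated by eye on a ten-point control scale after plants spent twelve to sixteen days in a greenhouse following soil or foliar treatment. Foliar sprays targeted plants at one to four leaves; all doses were formulated in a non-phytotoxic solvent with surfactant.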

rape = assay: Test B pre/postemergence rape; type: in vivo, Brassica napus
In short: as §1

morningglory = assay: Test B pre/postemergence morningglory; type: in vivo, Ipomoea hederacea
In short: as §1

purple nutsedge = assay: Test B pre/postemergence purple nutsedge; type: in vivo, Cyperus rotundus
In short: as §1

blackgrass = assay: Test B pre/postemergence blackgrass; type: in vivo, Alopecurus myosuroides
In short: as §1

crabgrass = assay: Test B pre/postemergence crabgrass; type: in vivo, Digitaria sanguinalis
In short: as §1

pigweed = assay: Test B pre/postemergence pigweed; type: in vivo, Amaranthus retroflexus
In short: as §1

giant foxtail = assay: Test B pre/postemergence giant foxtail; type: in vivo, Setaria faberii
In short: as §1

sugar beet = assay: Test B pre/postemergence sugar beet; type: in vivo, Beta vulgaris
In short: as §1

corn = assay: Test B pre/postemergence corn; type: in vivo, Zea mays
In short: as §1

wild oat = assay: Test B pre/postemergence wild oat; type: in vivo, Avena fatua
In short: as §1

surinam grass = assay: Test B pre/postemergence surinam grass; type: in vivo, Brachiaria decumbens; conditions: Postemergence
In short: as §1

velvetleaf = assay: Test B pre/postemergence velvetleaf; type: in vivo, Abutilon theophrasti
In short: as §1

bedstraw = assay: Test B pre/postemergence bedstraw; type: in vivo, Galium aparine
In short: as §1

wheat = assay: Test B pre/postemergence wheat; type: in vivo, Triticum aestivum
In short: as §1

cocklebur = assay: Test B pre/postemergence cocklebur; type: in vivo, Xanthium strumarium
In short: as §1

[1] = Postemergence, Rate 62 g/ha, scale 0 to 10, 0 is no effect, 10 is complete control
[2] = Preemergence, Rate 125 g/ha, scale of 0 to 10 where 0 is no effect and 10 is complete control
[3] = Preemergence, Rate 250 g/ha, scale 0 (no effect) to 10 (complete control)
[4] = Rate 62 g/ha, Preemergence, scale 0 to 10
[5] = Rate 250 g/ha, Postemergence, scale 0 to 10, 0 is no effect, 10 is complete control
[6] = Rate 500 g/ha, Postemergence, scale 0 to 10, 0 is no effect, 10 is complete control
[7] = Rate 500 g/ha, Preemergence, scale 0 to 10 (0 no effect, 10 complete control)
[8] = Postemergence, Rate 125 g/ha, scale of 0 to 10 where 0 is no effect and 10 is complete control

CC(CBr)Cn1c(=O)on(C(=O)N(c2ccc(F)cc2)C(C)C)c1=O (centres unmarked) [Compound 752]
8: Morningglory plant response rating (morningglory; [5]) | Crabgrass plant response rating (crabgrass; [5]) | Wild oats plant response rating (wild oat; [7])
0: Plant response rating, Soybean (soybean; [2]) | Soybean plant response rating (soybean; [3]) | Soybean plant response rating (soybean; [4]) | Soybean plant response rating (soybean; [7]) | Rape plant response rating (rape; [4]) | Plant response rating, Morningglory (morningglory; [2]) | Morningglory plant response rating (morningglory; [3]) | Morningglory plant response rating (morningglory; [4]) | Morningglory plant response rating (morningglory; [7]) | Plant response rating, Nutsedge (purple nutsedge; [1]) | Nutsedge plant response rating (purple nutsedge; [8]) | Plant response rating, Nutsedge (purple nutsedge; [2]) | Nutsedge plant response rating (purple nutsedge; [4]) | Nutsedge plant response rating (purple nutsedge; [5]) | Nutsedge plant response rating (purple nutsedge; [6]) | Nutsedge plant response rating (purple nutsedge; [7]) | Plant response rating, Blackgrass (blackgrass; [1]) | Plant response rating, Redroot pigweed (pigweed; [1]) | Redroot pigweed plant response rating (pigweed; [4]) | Plant response rating, Sugarbeets (sugar beet; [2]) | Sugarbeets plant response rating (sugar beet; [4]) | Plant response rating, Corn (corn; [1]) | Corn plant response rating (corn; [8]) | Plant response rating, Corn (corn; [2]) | Corn plant response rating (corn; [3]) | Corn plant response rating (corn; [4]) | Corn plant response rating (corn; [5]) | Corn plant response rating (corn; [6]) | Corn plant response rating (corn; [7]) | Plant response rating, Wild oats (wild oat; [1]) | Plant response rating, Wild oats (wild oat; [2]) | Wild oats plant response rating (wild oat; [4]) | Wild oats plant response rating (wild oat; [5]) | Wild oats plant response rating (wild oat; [6]) | Plant response rating, B. signalgrass (surinam grass; Rate 62 g/ha, scale 0 to 10, 0 is no effect, 10 is complete control) | B. signalgrass plant response rating (surinam grass; Rate 125 g/ha, scale of 0 to 10 where 0 is no effect and 10 is complete control) | Plant response rating, Velvetleaf (velvetleaf; [1]) | Plant response rating, Velvetleaf (velvetleaf; [2]) | Velvetleaf plant response rating (velvetleaf; [3]) | Velvetleaf plant response rating (velvetleaf; [4]) | Plant response rating, Bedstraw (bedstraw; [1]) | Bedstraw plant response rating (bedstraw; [8]) | Bedstraw plant response rating (bedstraw; [4]) | Plant response rating, Wheat (wheat; [1]) | Plant response rating, Wheat (wheat; [2]) | Wheat plant response rating (wheat; [3]) | Wheat plant response rating (wheat; [4]) | Wheat plant response rating (wheat; [7]) | Plant response rating, Cocklebur (cocklebur; [1]) | Plant response rating, Cocklebur (cocklebur; [2]) | Cocklebur plant response rating (cocklebur; [3]) | Cocklebur plant response rating (cocklebur; [4]) | Cocklebur plant response rating (cocklebur; [7])
6: Soybean plant response rating (soybean; [5]) | Soybean plant response rating (soybean; [6]) | Blackgrass plant response rating (blackgrass; [5]) | Blackgrass plant response rating (blackgrass; [6]) | B. signalgrass plant response rating (surinam grass; Rate 500 g/ha, scale 0 to 10, 0 is no effect, 10 is complete control)
10: Blackgrass plant response rating (blackgrass; [7]) | Crabgrass plant response rating (crabgrass; [3]) | Crabgrass plant response rating (crabgrass; [6]) | Crabgrass plant response rating (crabgrass; [7]) | Redroot pigweed plant response rating (pigweed; [3]) | Redroot pigweed plant response rating (pigweed; [7]) | Plant response rating, Giant foxtail (giant foxtail; [2]) | Giant foxtail plant response rating (giant foxtail; [3]) | Giant foxtail plant response rating (giant foxtail; [4]) | Giant foxtail plant response rating (giant foxtail; [7]) | Plant response rating, Bedstraw (bedstraw; [2]) | Bedstraw plant response rating (bedstraw; [3]) | Bedstraw plant response rating (bedstraw; [7])
7: Wild oats plant response rating (wild oat; [3])
9: Morningglory plant response rating (morningglory; [6]) | Plant response rating, Blackgrass (blackgrass; [2]) | Blackgrass plant response rating (blackgrass; [3]) | Plant response rating, Crabgrass (crabgrass; [2]) | Crabgrass plant response rating (crabgrass; [4]) | Redroot pigweed plant response rating (pigweed; [6]) | Giant foxtail plant response rating (giant foxtail; [8]) | Giant foxtail plant response rating (giant foxtail; [5]) | Giant foxtail plant response rating (giant foxtail; [6])
5: Rape plant response rating (rape; [3]) | Rape plant response rating (rape; [7]) | Redroot pigweed plant response rating (pigweed; [8]) | Redroot pigweed plant response rating (pigweed; [5]) | Wheat plant response rating (wheat; [5]) | Wheat plant response rating (wheat; [6])
3: Plant response rating, Rape (rape; [2]) | Plant response rating, Crabgrass (crabgrass; [1]) | Crabgrass plant response rating (crabgrass; [8]) | Plant response rating, Sugarbeets (sugar beet; [1]) | Sugarbeets plant response rating (sugar beet; [3]) | Sugarbeets plant response rating (sugar beet; [5]) | Sugarbeets plant response rating (sugar beet; [6]) | Sugarbeets plant response rating (sugar beet; [7]) | Cocklebur plant response rating (cocklebur; [8]) | Cocklebur plant response rating (cocklebur; [6])
2: Plant response rating, Rape (rape; [1]) | Rape plant response rating (rape; [8]) | Plant response rating, Morningglory (morningglory; [1]) | Morningglory plant response rating (morningglory; [8]) | Blackgrass plant response rating (blackgrass; [8]) | Plant response rating, Redroot pigweed (pigweed; [2]) | B. signalgrass plant response rating (surinam grass; Rate 250 g/ha, scale 0 to 10, 0 is no effect, 10 is complete control) | Velvetleaf plant response rating (velvetleaf; [5]) | Velvetleaf plant response rating (velvetleaf; [6]) | Velvetleaf plant response rating (velvetleaf; [7]) | Bedstraw plant response rating (bedstraw; [5]) | Bedstraw plant response rating (bedstraw; [6])
4: Plant response rating, Soybean (soybean; [1]) | Rape plant response rating (rape; [5]) | Rape plant response rating (rape; [6]) | Blackgrass plant response rating (blackgrass; [4])
